# Results published in patent US20230085307A1, “PYRIDAZINONE COMPOUND AND HERBICIDE” (NISSAN CHEMICAL CORPORATION, priority 2019, published 2023).
# What was measured:
# barnyard grass [1] = assay: Test Example 5: herbicidal effect by foliage application, plastic box (Table 20, symbol H); type: in vivo, barnyard grass (Echinochloa crus-galli); conditions: foliage application, 320 g/ha, evaluated three weeks after application
# Method in brief: (§1)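 Plants were sown into sterilized diluvial soil under about 1.5 cm cover and kept in a greenhouse at 25° C. to 30° C. Fourteen days on, foliage received an even spray of the diluted emulsion. Herbicidal or crop effect was judged three weeks afterwards.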
# wild oat [2] = assay: Test Example 4: herbicidal effect by soil treatment (Table 19, symbol I); type: in vivo, wild oat (Avena fatua); conditions: amount of applied herbicide 320 g/ha
# Method in brief: (§2)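 Pre-emergence style soil spray: seeds under ~1.5 cm sterilized diluvial soil received a uniform coat of emulsion diluted to the predetermined herbicide amount. Greenhouse 25–30° C; readout at week three on previously defined criteria.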
# false cleavers [3] = assay: Test Example 4: herbicidal effect by soil treatment (Table 19, symbol Q); type: in vivo, false cleavers (Galium spurium); conditions: amount of applied herbicide 320 g/ha
# Method in brief: as §2
# lambsquarters [4] = assay: Test Example 4: herbicidal effect by soil treatment (Table 19, symbol O); type: in vivo, lambsquarters (Chenopodium album); conditions: amount of applied herbicide 320 g/ha
# Method in brief: as §2
# southern crabgrass [5] = assay: Test Example 4: herbicidal effect by soil treatment (Table 19, symbol F); type: in vivo, southern crabgrass (Digitaria ciliaris); conditions: amount of applied herbicide 320 g/ha
# Method in brief: as §2
# barnyard grass [6] = assay: Test Example 4: herbicidal effect by soil treatment (Table 19, symbol H); type: in vivo, barnyard grass (Echinochloa crus-galli); conditions: amount of applied herbicide 320 g/ha
# Method in brief: as §2
# windgrass [7] = assay: Test Example 4: herbicidal effect by soil treatment (Table 19, symbol L); type: in vivo, windgrass (Apera spica-venti); conditions: amount of applied herbicide 320 g/ha
# Method in brief: as §2
# rice flat sedge = assay: Test Example 3: herbicidal effect by foliage application, Wagner pot (Table 18, symbol E); type: in vivo, rice flat sedge (Cyperus iria); conditions: 320 g/ha
# Method in brief: (§3)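 Plants were sown in alluvial soil held under 0.1–0.5 cm standing water and grown 14 days in a greenhouse at 25–30 °C. An emulsifiable formulation, water-diluted to the set dose, was then sprayed onto the foliage, and effects were scored three weeks later using previously defined criteria.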
# southern crabgrass [8] = assay: Test Example 5: herbicidal effect by foliage application, plastic box (Table 20, symbol F); type: in vivo, southern crabgrass (Digitaria ciliaris); conditions: foliage application, 320 g/ha, evaluated three weeks after application
# Method in brief: as §1
# velvetleaf [9] = assay: Test Example 4: herbicidal effect by soil treatment (Table 19, symbol M); type: in vivo, velvetleaf (Abutilon theophrasti); conditions: amount of applied herbicide 320 g/ha
# Method in brief: as §2
# green foxtail [10] = assay: Test Example 5: herbicidal effect by foliage application, plastic box (Table 20, symbol G); type: in vivo, green foxtail (Setaria viridis); conditions: foliage application, 320 g/ha, evaluated three weeks after application
# Method in brief: as §1
# redroot pigweed [11] = assay: Test Example 5: herbicidal effect by foliage application, plastic box (Table 20, symbol N); type: in vivo, redroot pigweed (Amaranthus retroflexus); conditions: foliage application, 320 g/ha, evaluated three weeks after application
# Method in brief: as §1
# Italian ryegrass [12] = assay: Test Example 5: herbicidal effect by foliage application, plastic box (Table 20, symbol K); type: in vivo, Italian ryegrass (Lolium multiflorum); conditions: foliage application, 320 g/ha, evaluated three weeks after application
# Method in brief: as §1
# lambsquarters [13] = assay: Test Example 5: herbicidal effect by foliage application, plastic box (Table 20, symbol O); type: in vivo, lambsquarters (Chenopodium album); conditions: foliage application, 320 g/ha, evaluated three weeks after application
# Method in brief: as §1
# wild oat [14] = assay: Test Example 5: herbicidal effect by foliage application, plastic box (Table 20, symbol I); type: in vivo, wild oat (Avena fatua); conditions: foliage application, 320 g/ha, evaluated three weeks after application
# Method in brief: as §1
# windgrass [15] = assay: Test Example 5: herbicidal effect by foliage application, plastic box (Table 20, symbol L); type: in vivo, windgrass (Apera spica-venti); conditions: foliage application, 320 g/ha, evaluated three weeks after application
# Method in brief: as §1
# blackgrass [16] = assay: Test Example 4: herbicidal effect by soil treatment (Table 19, symbol J); type: in vivo, blackgrass (Alopecurus myosuroides); conditions: amount of applied herbicide 320 g/ha
# Method in brief: as §2
# late watergrass = assay: Test Example 2: herbicidal activity, application during weed generation under submerged conditions (Table 17, symbol A); type: in vivo, late watergrass (Echinochloa oryzicola); conditions: AAH 320 g/ha; application during weed generation, submerged conditions
# Method in brief: (§4)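 In this pot test, flooded alluvial soil (water depth 4 cm) holds all three species sown as a mixture. Once seedlings have one to two leaves, the compound's emulsion, thinned with water to the intended dose, is poured on the water; grading follows after three weeks on the earlier criteria.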
# chickweed [17] = assay: Test Example 5: herbicidal effect by foliage application, plastic box (Table 20, symbol P); type: in vivo, common chickweed (Stellaria media); conditions: foliage application, 320 g/ha, evaluated three weeks after application
# Method in brief: as §1
# persian speedwell [18] = assay: Test Example 4: herbicidal effect by soil treatment (Table 19, symbol R); type: in vivo, Persian speedwell (Veronica persica); conditions: amount of applied herbicide 320 g/ha
# Method in brief: as §2
# chickweed [19] = assay: Test Example 4: herbicidal effect by soil treatment (Table 19, symbol P); type: in vivo, common chickweed (Stellaria media); conditions: amount of applied herbicide 320 g/ha
# Method in brief: as §2
# velvetleaf [20] = assay: Test Example 5: herbicidal effect by foliage application, plastic box (Table 20, symbol M); type: in vivo, velvetleaf (Abutilon theophrasti); conditions: foliage application, 320 g/ha, evaluated three weeks after application
# Method in brief: as §1
# Japanese bulrush = assay: Test Example 2: herbicidal activity, application during weed generation under submerged conditions (Table 17, symbol B); type: in vivo, Japanese bulrush (Schoenoplectus juncoides); conditions: AAH 320 g/ha; application during weed generation, submerged conditions
# Method in brief: as §4
# oval-leafed pondweed = assay: Test Example 2: herbicidal activity, application during weed generation under submerged conditions (Table 17, symbol C); type: in vivo, oval-leafed pondweed (Monochoria vaginalis); conditions: AAH 320 g/ha; application during weed generation, submerged conditions
# Method in brief: as §4
# blackgrass [21] = assay: Test Example 5: herbicidal effect by foliage application, plastic box (Table 20, symbol J); type: in vivo, blackgrass (Alopecurus myosuroides); conditions: foliage application, 320 g/ha, evaluated three weeks after application
# Method in brief: as §1
# false cleavers [22] = assay: Test Example 5: herbicidal effect by foliage application, plastic box (Table 20, symbol Q); type: in vivo, false cleavers (Galium spurium); conditions: foliage application, 320 g/ha, evaluated three weeks after application
# Method in brief: as §1
# Italian ryegrass [23] = assay: Test Example 4: herbicidal effect by soil treatment (Table 19, symbol K); type: in vivo, Italian ryegrass (Lolium multiflorum); conditions: amount of applied herbicide 320 g/ha
# Method in brief: as §2
# green foxtail [24] = assay: Test Example 4: herbicidal effect by soil treatment (Table 19, symbol G); type: in vivo, green foxtail (Setaria viridis); conditions: amount of applied herbicide 320 g/ha
# Method in brief: as §2
# barnyard grass [25] = assay: Test Example 3: herbicidal effect by foliage application, Wagner pot (Table 18, symbol H); type: in vivo, barnyard grass (Echinochloa crus-galli); conditions: 320 g/ha
# Method in brief: as §3
# persian speedwell [26] = assay: Test Example 5: herbicidal effect by foliage application, plastic box (Table 20, symbol R); type: in vivo, Persian speedwell (Veronica persica); conditions: foliage application, 320 g/ha, evaluated three weeks after application
# Method in brief: as §1
# Chinese sprangletop = assay: Test Example 3: herbicidal effect by foliage application, Wagner pot (Table 18, symbol D); type: in vivo, chinese sprangletop (Leptochloa chinensis); conditions: 320 g/ha
# Method in brief: as §3
# redroot pigweed [27] = assay: Test Example 4: herbicidal effect by soil treatment (Table 19, symbol N); type: in vivo, redroot pigweed (Amaranthus retroflexus); conditions: amount of applied herbicide 320 g/ha
# Method in brief: as §2
smiles,measurement,setting,value
CCCC(=O)Oc1c(C)nn(C)c(=O)c1-c1c(-c2ccc(OC)cc2)sc2ccc(Cl)cc12 [2-104],herbicidal effect on H: barnyard grass,barnyard grass [1],0 (Herbicidal rate of 5% or less (almost no effect))
same,"I: wild oat, herbicidal effect rating",wild oat [2],0 (Herbicidal rate of 5% or less (almost no effect))
same,"Q: false cleavers, herbicidal effect rating",false cleavers [3],0 (Herbicidal rate of 5% or less (almost no effect))
same,"O: lambsquarters, herbicidal effect rating",lambsquarters [4],3 (Herbicidal rate of 40% or more and less than 70%)
same,"F: southern crabgrass, herbicidal effect rating",southern crabgrass [5],0 (Herbicidal rate of 5% or less (almost no effect))
same,"H: barnyard grass, herbicidal effect rating",barnyard grass [6],0 (Herbicidal rate of 5% or less (almost no effect))
same,"L: windgrass, herbicidal effect rating",windgrass [7],0 (Herbicidal rate of 5% or less (almost no effect))
same,"herbicidal effect on E (rice flat sedge), rating 0-5",rice flat sedge,5 (Herbicidal rate of 90% or more (almost completely withered))
same,herbicidal effect on F: southern crabgrass,southern crabgrass [8],0 (Herbicidal rate of 5% or less (almost no effect))
same,"M: velvetleaf, herbicidal effect rating",velvetleaf [9],3 (Herbicidal rate of 40% or more and less than 70%)
same,herbicidal effect on G: green foxtail,green foxtail [10],0 (Herbicidal rate of 5% or less (almost no effect))
same,herbicidal effect on N: redroot pigweed,redroot pigweed [11],3 (Herbicidal rate of 40% or more and less than 70%)
same,herbicidal effect on K: Italian ryegrass,Italian ryegrass [12],0 (Herbicidal rate of 5% or less (almost no effect))
same,herbicidal effect on O: lambsquarters,lambsquarters [13],2 (Herbicidal rate of 20% or more and less than 40%)
same,herbicidal effect on I: wild oat,wild oat [14],0 (Herbicidal rate of 5% or less (almost no effect))
same,herbicidal effect on L: windgrass,windgrass [15],0 (Herbicidal rate of 5% or less (almost no effect))
same,"J: blackgrass, herbicidal effect rating",blackgrass [16],0 (Herbicidal rate of 5% or less (almost no effect))
same,"herbicidal effect rating, A: late watergrass",late watergrass,0 (Herbicidal rate of 5% or less (almost no effect))
same,herbicidal effect on P: chickweed,chickweed [17],5 (Herbicidal rate of 90% or more (almost completely withered))
same,"R: persian speedwell, herbicidal effect rating",persian speedwell [18],5 (Herbicidal rate of 90% or more (almost completely withered))
same,"P: chickweed, herbicidal effect rating",chickweed [19],3 (Herbicidal rate of 40% or more and less than 70%)
same,herbicidal effect on M: velvetleaf,velvetleaf [20],3 (Herbicidal rate of 40% or more and less than 70%)
same,"herbicidal effect rating, B: Japanese bulrush",Japanese bulrush,0 (Herbicidal rate of 5% or less (almost no effect))
same,"herbicidal effect rating, C: oval-leafed pondweed",oval-leafed pondweed,2 (Herbicidal rate of 20% or more and less than 40%)
same,herbicidal effect on J: blackgrass,blackgrass [21],0 (Herbicidal rate of 5% or less (almost no effect))
same,herbicidal effect on Q: false cleavers,false cleavers [22],1 (Herbicidal rate of 5% or more and less than 20%)
same,"K: Italian ryegrass, herbicidal effect rating",Italian ryegrass [23],0 (Herbicidal rate of 5% or less (almost no effect))
same,"G: green foxtail, herbicidal effect rating",green foxtail [24],0 (Herbicidal rate of 5% or less (almost no effect))
same,"herbicidal effect on H (barnyard grass), rating 0-5",barnyard grass [25],3 (Herbicidal rate of 40% or more and less than 70%)
same,herbicidal effect on R: persian speedwell,persian speedwell [26],5 (Herbicidal rate of 90% or more (almost completely withered))
same,"herbicidal effect on D (Chinese sprangletop), rating 0-5",Chinese sprangletop,0 (Herbicidal rate of 5% or less (almost no effect))
same,"N: redroot pigweed, herbicidal effect rating",redroot pigweed [27],4 (Herbicidal rate of 70% or more and less than 90%)
